Measurements taken from EPA's ToxValDB 9.5 (doi:10.2903/j.efsa.2010.1631).

Columns and labels:
[1] = test system: Canidae; conditions: oral, Dog Other, body weight
[2] = test system: Coturnix coturnix; conditions: acute; oral; mortality
[3] = test system: Rattus norvegicus
[4] = test system: Anas platyrhynchos; conditions: acute; oral; unspecified; mortality
[5] = test system: Mus musculus; conditions: acute; oral; mortality
[6] = test system: Cyprinus carpio; conditions: acute; duration: 96 hours; mortality
[7] = test system: Tagia sp.; conditions: acute; duration: 14 days; mortality
[8] = test system: Apis mellifera; conditions: acute; duration: 48 hours; dermal; mortality
[9] = test system: Bibionidae; conditions: chronic/long-term; duration: 28 days
[10] = test system: Pimephales promelas; conditions: chronic/long-term; duration: 30 days; growth
[11] = test system: Daphnia magna; conditions: chronic/long-term; duration: 21 days; reproduction
[12] = chronic/long-term; development
[13] = test system: Aphidius rhopalosiphi; test: LR50; higher = less toxic; conditions: not reported; mortality

SMILES: CC(=O)O.CCCCCCCCCCCCN=C(N)N [Dodecylguanidine acetate]
- NOAEL ([1]; chronic, duration: 1 years): 10 mg/kg-day
- NOAEL ([1]; subchronic, duration: 90 days): 10 mg/kg-day
- LD50 [2]: 981 mg/kg-day
- LD50 ([3]; acute, oral, mortality): 851 mg/kg-day
- NOEL ([3]; chronic, body weight): 18.6 mg/kg-day
- NOAEL ([3]; reproduction developmental, body weight): 10 mg/kg-day
- LD50 [4]: 857 mg/kg-day
- LD50 [5]: 1350 mg/kg-day
- LC50 [6]: 0.6 µg/mL
- LC50 [7]: 547 mg/kg
- NOEC [7]: 171 mg/kg
- LD50 [8]: > 100 µg/piece
- NOEC [9]: 3.2 mg/L
- NOEC [10]: 0.099 mg/L
- NOEC [11]: 0.0044 mg/L
- NOEL [12]: 45 mg/kg-day
- LR50 [13]: > 1800 g/ha
